{"source": "patent US20120172375A1", "about": "“COMPOUNDS AND METHODS OF PROMOTING OLIGODENDROCYTE PRECURSOR DIFFERENTIATION” (priority 2008, published 2012)", "key": {"Solubility": {"experiment": "Solubility", "assay_type": "physicochemical"}, "Hydrophobicity": {"experiment": "Hydrophobicity", "assay_type": "physicochemical"}, "[1]": {"system": "oligodendrocyte progenitors", "experiment": "Primary/secondary screening: oligodendrocyte progenitor morphology changes and Plp-EGFP fluorescence", "assay_type": "cell-based, mouse", "set-up": "key to differentiation scale score (cell morphology): 1: bipolar, undifferentiated; 2: bipolar to tripolar, initiated differentiation; 3: multibranched, differentiated cells; 4: multibranched, differentiated cells showing membranous structures", "conditions": "10 μM, 48 hr", "procedure": "Oligodendrocyte progenitors were generated from embryonic neural progenitors growing in cell aggregates known as neurospheres (Nphs). Nph were prepared from embryos at 14.5 days of gestation obtained from timed pregnant females of either wild type mice or the proteolipid protein-enhanced-green fluorescence protein (Plp-EGFP) transgenic mouse. In brief, after separation of meninges and cerebellum, cerebrum tissue was mechanically triturated with a 1 ml Gilson pipette until total tissue disaggregation was achieved, filtered through a 70 μm cell strainer (Fisher Scientific, Pittsburg, Pa.) and plated in 25 cm^2 plastic culture flasks (2 brains/flask). Nph proliferation media (NPM) was DMEM/F12, B27 neuronal supplement (Gibco, Baltimore, Md.) and 10 ng/ml EGF (Sigma, St. Louis, Mo.). After 48-72 hr, floating Nphs were passaged at a 1:3 ratio in the same medium every 3-4 days. To generate oligodendrocyte progenitors, single cells suspensions were obtained by chemical disgregation with the mouse NeuroCult dissociation kit (StemCell Technologies, Alberta, Canada). The single cell suspension was filtered through a 70 μm cell strainer and plated on 96-well poly-D-Lysine (PDL)-coated plates at a cell density of 1.5×10^4 cells/cm^2. Cells were maintained in NPM supplemented with 10 ng/ml PDGF/bFGF instead of EGF. Bipolar, oligodendrocyte progenitor cells were observed 24 hours after plating. […]\nThe small molecule library consists of handcrafted drug-like organic molecules with molecular weight in a range of 250-550, dissolved in DMSO at concentration of 5 mg/ml or […]. Their structure and >95% purity have been validated by NMR. […] Oligodendrocyte progenitor differentiation was scored using as 4 scale values as follows: 1: bipolar, undifferentiated; 2: bipolar to tripolar, initiated differentiation; 3: multibranched, differentiated cells; 4: multibranched, differentiated cells showing membranous structures (FIG. 1).\nDifferentiation induced by selected compounds was further validated by fluorescence microscopy in cells generated from our Plp-EGFP transgenic mouse. Increased fluorescence in treated oligodendrocyte progenitor was indicative of cell maturation and was again scored following the same scale. […] These were analyzed for cell toxicity assays by MTT were yellow 3-(4,5-Dimethylthiazol-2-yl)-2,5-diphenyltetrazolium bromide, a tetrazole (MTT) is reduced to purple formazan in the mitochondria of living cells, showing a solution color change measurable by OD620-590 (Data not shown). Further oligodendrocyte progenitor maturation in response to selected compounds was assessed by induction of myelin protein expression as determined by immunocytochemistry and western blot. […]"}}}
{"smiles": "CC(C)N1CCN(C(=O)COc2ccc(-c3ccccc3)cc2)CC1", "note": "[Compound A-7, 1-(Biphenyl-4-yloxy)acetyl-4-isopropylpiperazine]", "values": [{"measurement": "solubility", "setting": "Solubility", "value": "high"}, {"measurement": "hydrophobicity", "setting": "Hydrophobicity", "value": "high"}]}
{"smiles": "CCS(=O)(=O)N1CCN(C(=O)COc2ccc(-c3ccccc3)cc2)CC1", "note": "[Compound A, 1-[(4-biphenylyloxy)acetyl]-4-(ethylsulfonyl)piperazine]", "values": [{"measurement": "differentiation scale score (cell morphology)", "setting": "[1]", "value": 4}]}
